Laboratory results published in patent US11191732B2, “Glutaminase inhibitor discovery and nanoparticle-enhanced delivery for cancer therapy” (The Johns Hopkins University, priority 2014, dated 2021).
Each block holds one compound with its values, some of them ahead of it.

Tests used:
[1] = BPTES levels in pancreatic tumors after intravenous administration (LC-MS/MS); format: in vivo, mice; settings: all time points, limit of detection 10 nM
Text: BPTES levels were quantified by LC-MS/MS.
(§1) DMSO solution per dose, as this was is the highest dose that could be administered based on solubility and injection volume limitations.

[2] = system: glutamine-dependent JHU094 pancreatic patient tumor; assay: JHU094 pancreatic patient tumor growth in vivo; set-up: species or system mice; settings: nanoparticle 1.2 mg vs free 0.3125 mg in 100 μl, IV
Text: as §1

[3] = system: KRAS-mutant human pancreatic cancer cells; assay: Growth of glutamine-addicted pancreatic cancer cells with BPTES; format: cell-based; settings: full DMEM media, BPTES dissolved in DMSO
Protocol: Cells were grown at 37° C. in a 5% (v/v) CO2 and 95% (v/v) air incubator in full DMEM media.

GLS = GLS (Homo sapiens (Human), UniProt O94925); assay: Inhibition of GLS (established radioactive assay); format: biochemical
Text: All new synthetic compounds can be tested for their ability to inhibit GLS using an already established radioactive assay.

Metabolic stability = format: in vitro ADME; settings: oxidation of the sulfide moiety
Text: In compound 4, the terminal aminothiadiazole ring was replaced with a secondary amide, presenting a new scaffold for GLS inhibitors.

[4] = system: resected pancreatic cancer; settings: six cycles adjuvant, cited from earlier work
[5] = system: resected pancreatic cancer; settings: 6 months adjuvant treatment after complete macroscopic resection; cited from earlier work
Panc265 tumor = assay: Panc265 patient-derived orthotopic pancreatic cancer xenograft tumor growth; format: in vivo; settings: BPTES nanoparticles 1.2 mg every 3 days IV; gemcitabine 625 μg twice per week IP; 4 weeks

GLS, sequence (O94925 73-669): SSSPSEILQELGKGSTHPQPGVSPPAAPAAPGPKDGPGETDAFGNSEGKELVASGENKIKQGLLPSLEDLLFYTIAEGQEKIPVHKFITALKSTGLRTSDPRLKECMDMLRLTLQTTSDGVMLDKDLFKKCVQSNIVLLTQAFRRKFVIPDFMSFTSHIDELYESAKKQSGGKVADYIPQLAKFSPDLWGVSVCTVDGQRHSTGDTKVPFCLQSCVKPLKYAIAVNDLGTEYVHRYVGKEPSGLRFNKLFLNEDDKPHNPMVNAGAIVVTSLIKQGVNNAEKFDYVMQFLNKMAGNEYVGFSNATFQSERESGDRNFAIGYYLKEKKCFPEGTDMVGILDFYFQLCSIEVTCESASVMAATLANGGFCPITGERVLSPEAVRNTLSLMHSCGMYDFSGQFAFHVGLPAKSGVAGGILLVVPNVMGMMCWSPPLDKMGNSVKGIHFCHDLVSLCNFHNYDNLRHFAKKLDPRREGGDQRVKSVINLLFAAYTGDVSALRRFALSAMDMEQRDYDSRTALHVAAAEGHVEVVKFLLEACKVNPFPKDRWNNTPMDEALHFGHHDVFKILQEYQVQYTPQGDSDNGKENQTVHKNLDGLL

SMILES: Nc1nnc(CCSCCc2nnc(N)s2)s1 [Compound 2]
IC50 (GLS): 100000 nM
metabolic stability (Metabolic stability): metabolically unstable

SMILES: Nc1nnc(CCCCc2nnc(NC(=O)Cc3ccccc3)s2)s1 [Compound 3]
IC50 (GLS): 1900 nM

SMILES: O=C(CCCCc1nnc(NC(=O)Cc2ccccc2)s1)NCCN1CCCC1 [Compound 4]
IC50 (GLS): 4600 nM

SMILES: Nc1ccn([C@@H]2O[C@H](CO)[C@@H](O)C2(F)F)c(=O)n1 [gemcitabine]
survival rate at 10 years ([4]; observation-alone arm 7.7%): 12.2%
survival rate at 5 years ([4]; observation-alone arm 10.4%): 20.7%
Median OS [5]: 23.6 months
reduction in tumor growth (Panc265 tumor): 40-50%

Second part, led by results:

BPTES level in tumor [1]: < 10 nM
SMILES: O=C(Cc1ccccc1)Nc1nnc(CCSCCc2nnc(NC(=O)Cc3ccccc3)s2)s1 [BPTES, bis-2-[5-(phenylacetamido)-1,3,4-thiadiazol-2-yl]ethyl sulfide]
effect on tumor growth [2]: no statistical benefit
effect on growth of glutamine-addicted pancreatic cancers [3]: inhibitory to their growth

IC50 (GLS): 80 nM
SMILES: O=C(Cc1ccccc1)Nc1nnc(CCCCc2nnc(NC(=O)Cc3ccc(O)cc3)s2)s1 [Compound 5]

IC50 (GLS): 100 nM
SMILES: O=C(O)CCCCC(=O)Nc1nnc(CCCCc2nnc(NC(=O)Cc3ccccc3)s2)s1 [Compound 6]

IC50 (GLS): 100 nM
SMILES: O=C(O)CCCCCC(=O)Nc1nnc(CCCCc2nnc(NC(=O)Cc3ccccc3)s2)s1 [Compound 7]
